Data published in patent US8633164B2, “Antimicrobial peptides” (priority 2008, dated 2014).
Converted amounts (≈) assume the structure as drawn. Residues, ends and D or L forms follow the SMILES beside them. No end group written: not given here.

Experiments:
LPS = experiment: Animal model of endotoxicity (LPS/galactosamine endotoxic shock, mortality); type: in vivo, mice; conditions: mouse, LPS + galactosamine i.p., 150 μg peptide i.p.
From the text: The wild-type LPS of E. coli ATCC 35218 and P. aeruginosa PAO1 were obtained from the aqueous phase of a water-phenol extract and purified by treatment with chaotropic agents and detergents.
Female ICR (CD-1) mice weighing 20-23 g were randomly distributed in experimental groups (n=16). Endotoxic shock was induced in the animals by coinoculation of LPS and galactosamine following the method of Galanos et al. Specifically, each animal received an intraperitoneal injection containing a mixture of 0.3 μg of LPS and 18 mg of galactosamine resuspended in 200 μl of endotoxin-free saline.
Immediately after LPS administration, animals were intraperitoneally inoculated with 150 μg of the test peptide resuspended in 150 μl of pyrogen-free saline containing 10% dimethylformamide as solubilizing agent. To facilitate the therapeutical action of the peptide, mice so treated were gently massaged at the site of inoculation for a few seconds. Animal mortality was monitored at 6 h and 12 h postinoculation and at daily intervals for 5 days.
In each independent experiment a group of animals received 150 μl of pyrogen-free saline containing 150 μg of polymyxin B, a lipopeptide with well known antiendotoxic properties, whereas another group was left untreated.
Results of animal mortality at all experimental time points were globally analyzed using the Kaplan-Meier survival analysis. When the survival plots were parallel, data were compared by the Log-Rank test, whereas for those plots that intersected the “Breslow-Gehan-Wilcoxon”. […]

[1] = system: Acinetobacter baumanii ATCC 19606; type: cell-based
Procedure: (§1) The antibacterial activity of the peptides was determined by microdilution susceptibility assays performed in Mueller-Hinton broth. Susceptibility testing was performed following the recommendations of the Clinical Standards Institute (CLSI, formerly NCCLS) [Standards, 2000]. Peptides (2 mg/ml in 4 mM HEPES, pH 7.2) were two-fold diluted in Mueller-Hinton Broth in 96-well microtitre plates to obtain concentrations from 512 to 0.25 μg/ml in a volume of 100 μl. Bacteria were grown on Mueller-Hinton agar plates for 1 to 3 days depending on the growth rate of the bacteria, suspended in 2 ml of 0.9% saline and adjusted to 10^8 CFU/ml. The bacterial suspension was diluted 100-fold in Mueller-Hinton broth, and 0.1 ml of this new dilution (10^5 CFU) was added to the peptide dilutions. The microtiter plates were incubated at 37° C. for 24 h. The minimal inhibitory concentration (MIC) of each peptide against a given bacterial strain was regarded as the minimal concentration of the peptide which prevents the growth of that organism 24 h after inoculation. The bactericidal effect of the peptides was determined, after 24 h incubation at 37° C., by plating 10 μl of the content of non-cloudy wells onto Mueller-Hinton agar plates. Plates were incubated at 37° C. for 1 to 5 days, and a viable count was performed. The minimal bactericidal concentration (MBC) of each peptide for a given bacterial strain was regarded as the minimal concentration of the peptide which kills 99.9% of the colony-forming units (CFU) present in the final inoculum.

[2] = system: Escherichia coli ATCC 25922; type: cell-based
Procedure: as §1

[3] = system: Staphylococcus aureus ATCC 25923; type: cell-based
Procedure: as §1

[4] = system: Stenotrophomonas Maltophilia 3998-00 CUN; type: cell-based
Procedure: as §1

MRSA ATCC 43300 = type: cell-based, methicillin-resistant Staphylococcus aureus
Procedure: as §1

MRSA CUN 3792-99 = type: cell-based, methicillin-resistant Staphylococcus aureus
Procedure: as §1

HIV-1 isolate = experiment: Anti-HIV action: inhibition of virus replication in T-cell line PM1; type: cell-based; conditions: 20 μg/ml peptide
Procedure: A T-cell line (PM1) was incubated with a HIV-1 isolate and the infected cells were cultivated in peptide-containing medium. After some days the number of viruses was determined as compared to untreated cells. The number of viruses is determined by the concentrations of the HIV-capsid in the supernatant. FIG. 8 depicts the anti-HIV action of the peptides Pep19-2, -4, 6, and 8 at peptide concentrations of 1, 5, 10, and 20 μg/ml.

[5] = system: LPS-induced cytokine expression in human mononuclear cells; experiment: Inhibition of LPS-induced cytokine secretion of human mononuclear cells; type: cell-based; conditions: comparison of Pep12, 17-1 and 19-1
Procedure: Human mononuclear cells (MNC): heparinized (20 IU/ml) blood obtained from healthy donors was mixed with an equal volume of Hank's balanced solution, layered over Ficoll, and centrifuged for 40 min (21° C., 500 g). The interphase layer of MNC was collected and washed twice in Hank's medium and then resuspended in RPMI 1640 supplemented with 2 mM L-glutamine, 100 U/ml penicillin, and 100 μg/ml streptomycin. MNC (200 μl/well; 5×10^6 cells/ml) were transferred into 96-well culture plates. Twenty microliters of a mixture containing LPS (100 ng/ml or 10 ng/ml) and Gra-pep (10:1 weight % excess) was added to each well. Supernatants were harvested after 4 h incubation at 37° C. under 5% CO2, and TNFα production was measured in a sandwich-ELISA. TNFα was determined in duplicate at two different dilutions and the values from two independent experiments were averaged.

Compound	Dead mice/number of mice, 24 h (LPS)	Dead mice/number of mice, 48 h (LPS)	Dead mice/number of mice, 72 h (LPS)	MIC [1] [µg/mL]	MBC [2] [µg/mL]	MIC [2] [µg/mL]	MBC [3] [µg/mL]	MIC [3] [µg/mL]	MIC [4] [µg/mL]	MIC (MRSA ATCC 43300) [µg/mL]	MIC (MRSA CUN 3792-99) [µg/mL]	% inhibition of virus replication in a T-cell line (HIV-1 isolate) [%]	Inhibition of LPS-induced cytokine production [5]
N=C(N)NCCC[C@H](NC(=O)[C@H](Cc1ccc(O)cc1)NC(=O)[C@H](CCCCN)NC(=O)[C@H](CCCCN)NC(=O)[C@H](CS)NC(=O)CN)C(=O)N[C@@H](CCCNC(=N)N)C(=O)N[C@@H](Cc1ccccc1)C(=O)N[C@@H](CCCNC(=N)N)C(=O)N[C@@H](Cc1c[nH]c2ccccc12)C(=O)N[C@@H](CCCCN)C(=O)N[C@@H](Cc1ccccc1)C(=O)N[C@@H](CCCCN)C(=O)NCC(=O)N[C@@H](CCCCN)C(=O)N[C@@H](Cc1ccccc1)C(=O)N[C@@H](Cc1c[nH]c2ccccc12)C(=O)N[C@@H](Cc1ccccc1)C(=O)N[C@@H](Cc1c[nH]c2ccccc12)C(=O)N[C@@H](CS)C(=O)NCC(N)=O [Pep 19-2] (H-GCKKYRRFRWKFKGKFWFWCG-NH2)	0/10	0/10	0/10	64 (≈ 22.7 µM)	512 (≈ 182 µM)	128 (≈ 45.5 µM)	512 (≈ 182 µM)	128 (≈ 45.5 µM)	512 (≈ 182 µM)	128 (≈ 45.5 µM)	1024 (≈ 364 µM)		
N=C(N)NCCC[C@H](NC(=O)[C@H](Cc1ccc(O)cc1)NC(=O)[C@H](CCCCN)NC(=O)[C@H](CCCCN)NC(=O)CN)C(=O)N[C@@H](CCCNC(=N)N)C(=O)N[C@@H](Cc1ccccc1)C(=O)N[C@@H](CCCNC(=N)N)C(=O)N[C@@H](Cc1c[nH]c2ccccc12)C(=O)N[C@@H](CCCCN)C(=O)N[C@@H](Cc1ccccc1)C(=O)N[C@@H](CCCCN)C(=O)NCC(=O)N[C@@H](CCCCN)C(=O)N[C@@H](Cc1c[nH]c2ccccc12)C(=O)N[C@@H](Cc1ccccc1)C(=O)N[C@@H](Cc1c[nH]c2ccccc12)C(=O)N[C@@H](Cc1ccccc1)C(=O)NCC(N)=O [Pep 19-4, GKKYRRFRWKFKGKWFWFG] (H-GKKYRRFRWKFKGKWFWFG-NH2)				16 (≈ 6.13 µM)	15.6 (≈ 5.98 µM)			15.6 (≈ 5.98 µM)	32 (≈ 12.3 µM)	16 (≈ 6.13 µM)	16 (≈ 6.13 µM)		
N=C(N)NCCC[C@H](NC(=O)CNC(=O)[C@H](CCCNC(=N)N)NC(=O)[C@H](Cc1ccccc1)NC(=O)[C@H](CCCCN)NC(=O)[C@H](Cc1c[nH]c2ccccc12)NC(=O)[C@H](CCCNC(=N)N)NC(=O)[C@H](Cc1ccccc1)NC(=O)[C@H](CCCNC(=N)N)NC(=O)[C@H](CCCNC(=N)N)NC(=O)[C@H](Cc1ccc(O)cc1)NC(=O)[C@H](CCCCN)NC(=O)[C@H](CCCCN)NC(=O)CN)C(=O)N[C@@H](Cc1ccccc1)C(=O)N[C@@H](Cc1c[nH]c2ccccc12)C(=O)N[C@@H](Cc1ccccc1)C(=O)N[C@@H](Cc1c[nH]c2ccccc12)C(=O)NCC(N)=O [Pep 19-5, GKKYRRFRWKFRGRFWFWG] (H-GKKYRRFRWKFRGRFWFWG-NH2)				16 (≈ 6.01 µM)	15.6 (≈ 5.86 µM)	15.6 (≈ 5.86 µM)		15.6 (≈ 5.86 µM)	64 (≈ 24 µM)	16 (≈ 6.01 µM)	16 (≈ 6.01 µM)	99	
CC(C)C[C@H](NC(=O)[C@H](Cc1c[nH]c2ccccc12)NC(=O)[C@H](CC(C)C)NC(=O)[C@H](CCCCN)NC(=O)[C@H](CCC(N)=O)NC(=O)[C@H](CCCCN)NC(=O)[C@H](CS)NC(=O)[C@H](CCCCN)NC(=O)[C@H](CC(C)C)NC(=O)[C@H](CCCCN)NC(=O)[C@H](Cc1ccccc1)NC(=O)[C@H](CCCNC(=N)N)NC(=O)[C@H](CCCNC(=N)N)NC(=O)[C@H](Cc1ccccc1)NC(=O)[C@H](CCCCN)NC(=O)[C@H](CCCCN)NC(=O)[C@H](CS)NC(=O)CN)C(=O)N[C@@H](Cc1c[nH]c2ccccc12)C(=O)N[C@@H](CS)C(=O)NCC(N)=O [Pep 19-6] (H-GCKKFRRFKLKCKQKLWLWCG-NH2)				64 (≈ 24.1 µM)	>500	>500	>500	>500	1024 (≈ 385 µM)	64 (≈ 24.1 µM)	32 (≈ 12 µM)		
N=C(N)NCCC[C@H](NC(=O)[C@H](Cc1ccc(O)cc1)NC(=O)[C@H](CCCCN)NC(=O)[C@H](CCCCN)NC(=O)CN)C(=O)N[C@@H](CCCNC(=N)N)C(=O)N[C@@H](Cc1ccccc1)C(=O)N[C@@H](Cc1c[nH]c2ccccc12)C(=O)N[C@@H](CCCCN)C(=O)N[C@@H](Cc1ccccc1)C(=O)N[C@@H](CCCCN)C(=O)NCC(=O)N[C@@H](CCCCN)C(=O)N[C@@H](Cc1c[nH]c2ccccc12)C(=O)N[C@@H](Cc1ccccc1)C(=O)N[C@@H](Cc1ccccc1)C(=O)N[C@@H](Cc1c[nH]c2ccccc12)C(=O)NCC(N)=O [Pep 19-7, GKKYRRFWKFKGKWFFWG] (H-GKKYRRFWKFKGKWFFWG-NH2)				16 (≈ 6.53 µM)	>500	>500	>500	>500	645 (≈ 263 µM)	16 (≈ 6.53 µM)	16 (≈ 6.53 µM)		
N=C(N)NCCC[C@H](NC(=O)CNC(=O)[C@H](CCCCN)NC(=O)[C@H](Cc1ccccc1)NC(=O)[C@H](CCCCN)NC(=O)[C@H](Cc1c[nH]c2ccccc12)NC(=O)[C@H](CCCNC(=N)N)NC(=O)[C@H](Cc1ccccc1)NC(=O)[C@H](CCCCN)NC(=O)[C@H](CCCCN)NC(=O)[C@H](Cc1ccc(O)cc1)NC(=O)[C@H](CCCNC(=N)N)NC(=O)[C@H](CCCNC(=N)N)NC(=O)CN)C(=O)N[C@@H](Cc1c[nH]c2ccccc12)C(=O)N[C@@H](Cc1ccccc1)C(=O)N[C@@H](Cc1c[nH]c2ccccc12)C(=O)N[C@@H](Cc1ccccc1)C(=O)NCC(N)=O [Pep 19-8, GRRYKKFRWKFKGRWFWFG] (H-GRRYKKFRWKFKGRWFWFG-NH2)				16 (≈ 6.07 µM)					32 (≈ 12.1 µM)	8 (≈ 3.03 µM)	8 (≈ 3.03 µM)	99	
GCKKFRRLKWKYKGKFWFWCG (GCKKFRRLKWKYKGKFWFWCG-NH2; cysteine pairing not given here) [Pep 19-1]													inhibits most strongly
KKFRRLKWKYKGKFWFW (Synthetic antimicrobial peptide 1Pep17-1) [Pep 17-1]	7/11	7/11	8/11										
KKYRRFRWKFKGKFWFW (Synthetic antimicrobial peptide 1Pep17-2) [Pep 17-2]	7/10	7/10	8/11										
polymyxin B [PMB, reference compound]	0/10	0/10	0/10										
